Source: patent publication US12319664B2, “Herbicidally active 3-phenylisoxazoline-5-carboxamides of cyclopentenylcarboxylic acid derivatives” (Bayer Aktiengesellschaft, priority 2018, dated 2025)

Experiments:
[1] = tested on: AVEFA; assay: Post-emergence herbicidal action against AVEFA; format: in vivo, Avena fatua; details: application rate 80 g/ha, rated visually after about 3 weeks
Method in brief: (§1)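 Aqueous suspensions or emulsions of WP/EC formulations containing 0.5% additive are sprayed at 600 l/ha onto plants at the one-leaf stage. After about 3 weeks in the greenhouse, activity is rated by eye versus untreated controls.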

[2] = tested on: ECHCG; assay: Post-emergence herbicidal action against ECHCG; format: in vivo, Echinochloa crus-galli; details: application rate 80 g/ha, rated visually after about 3 weeks
Method in brief: as §1

[3] = tested on: LOLRI; assay: Post-emergence herbicidal action against LOLRI; format: in vivo, Lolium rigidum; details: application rate 80 g/ha, rated visually after about 3 weeks
Method in brief: as §1

[4] = tested on: SETVI; assay: Post-emergence herbicidal action against SETVI; format: in vivo, Setaria viridis; details: application rate 80 g/ha, rated visually after about 3 weeks
Method in brief: as §1

[5] = tested on: ABUTH; assay: Post-emergence herbicidal action against ABUTH; format: in vivo, Abutilon theophrasti; details: application rate 80 g/ha, rated visually about 3 weeks after treatment
Method in brief: as §1

[6] = tested on: AMARE; assay: Post-emergence herbicidal action against AMARE; format: in vivo, Amaranthus retroflexus; details: application rate 80 g/ha, rated visually about 3 weeks after treatment
Method in brief: as §1

[7] = tested on: PHBPU; assay: Post-emergence herbicidal action against PHBPU; format: in vivo, Pharbitis purpurea; details: application rate 80 g/ha, rated visually about 3 weeks after treatment
Method in brief: as §1

[8] = tested on: POLCO; assay: Post-emergence herbicidal action against POLCO; format: in vivo, Polygonum convolvulus; details: application rate 80 g/ha, rated visually about 3 weeks after treatment
Method in brief: as §1

[9] = tested on: STEME; assay: Post-emergence herbicidal action against STEME; format: in vivo, Stellaria media; details: application rate 80 g/ha, rated visually about 3 weeks after treatment
Method in brief: as §1

[10] = tested on: VIOTR; assay: Post-emergence herbicidal action against VIOTR; format: in vivo, Viola tricolor; details: application rate 80 g/ha, rated visually about 3 weeks after treatment
Method: [table] 2. Post-emergence herbicidal action against harmful plants and crop plant compatibility Seeds of monocotyledonous and dicotyledonous weeds and crop plants are placed in sandy loam in plastic or wood-fibre pots, covered with soil and cultivated in a greenhouse under controlled growth conditions. 2 to 3 weeks after sowing, the test plants are treated at the one-leaf stage. The compounds of the invention, formulated in the form of wettable powders (WP) or as emulsion concentrates (EC), are then sprayed onto the green parts of the plants as aqueous suspension or emulsion with addition of 0.5% additive at a water application rate of 600 l/ha (converted). After the test plants have been kept in the greenhouse under optimum growth conditions for about 3 weeks, the activity of the preparations is rated visually in comparison to untreated controls. For example, 100% activity=the plants have died, 0% activity=like control plants.

[11] = tested on: VERPE; assay: Post-emergence herbicidal action against VERPE; format: in vivo, Veronica persica; details: application rate 80 g/ha
Method in brief: as §1

[12] = tested on: HORMU; assay: Post-emergence herbicidal action against HORMU; format: in vivo, Hordeum murinum; details: application rate 80 g/ha
Method in brief: as §1

[13] = tested on: ALOMY; assay: Post-emergence herbicidal action against ALOMY; format: in vivo, Alopecurus myosuroides; details: application rate 80 g/ha, rated visually after about 3 weeks
Method in brief: as §1

| Structure (SMILES) | Herbicidal action against [%] AVEFA [1] [%] | Herbicidal action against [%] ECHCG [2] [%] | Herbicidal action against [%] LOLRI [3] [%] | Herbicidal action against [%] SETVI [4] [%] | Herbicidal action against [%] ABUTH [5] [%] | Herbicidal action against [%] AMARE [6] [%] | Herbicidal action against [%] PHBPU [7] [%] | Herbicidal action against [%] POLCO [8] [%] | Herbicidal action against [%] STEME [9] [%] | Herbicidal action against [%] VIOTR [10] [%] | Herbicidal action against [%] VERPE [11] [%] | Herbicidal action against [%] HORMU [12] [%] | Herbicidal action against [%] ALOMY [13] [%] |
| --- | --- | --- | --- | --- | --- | --- | --- | --- | --- | --- | --- | --- | --- |
| C=CC1(C(=O)N[C@H]2CC=C(C(=O)OCCOCC)C2)CC(c2cc(F)cc(F)c2)=NO1 (stereo partly shown) [III-16] | 100 | 90 | 100 | 80 | 80 | 90 | 90 | 90 | 80 | 90 | 80 | 90 | – |
| COCCOC(=O)C1C=CC(NC(=O)C2(C(F)(F)F)CC(c3cc(F)cc(C#N)c3)=NO2)C1 (stereo not shown) [Example I-100] | 100 | 90 | 90 | 80 | 80 | 80 | 80 | 90 | 90 | 80 | 90 | 90 | 100 |
| COc1cc(OC)cc(C2=NOC(C(=O)NC3C=CC(C(=O)OCC(F)(F)F)C3)(C(F)(F)F)C2)c1 (mixture of isomers) [Example I-052] | 100 | 80 | 100 | 90 | 90 | 90 | 80 | – | 80 | 80 | 80 | 100 | 100 |
| COC(=O)C1=CC[C@H](NC(=O)C2(C)CC(c3cc(F)cc(F)c3)=NO2)C1 (stereo partly shown) [III-10] | 100 | 90 | 100 | 90 | 90 | 90 | 90 | – | 90 | 90 | 90 | 100 | 100 |
| CC1(C(=O)NC2C=CC(C(=O)OCCCl)C2)CC(c2cc(F)cc(C#N)c2)=NO1 (mixture of isomers) [Example I-083] | 100 | 90 | 100 | 80 | 90 | 90 | 90 | 90 | 90 | 90 | 90 | 100 | 100 |
| COC(=O)C1C=CC(NC(=O)C2(C)CC(c3cc(F)cc(C#N)c3)=NO2)C1 (mixture of isomers) [Example I-084] | 100 | 90 | 100 | 90 | 90 | 90 | 90 | 90 | 100 | 90 | 90 | 100 | 100 |
| C=CC1(C(=O)N[C@H]2CC=C(C(=O)OCC)C2)CC(c2cc(F)cc(F)c2)=NO1 (stereo partly shown) [III-17] | 90 | 80 | 90 | 80 | 80 | 90 | 90 | 80 | 90 | 80 | 90 | 90 | 100 |
| CC(C)C(C#N)NC(=O)C1C=CC(NC(=O)C2(C(F)(F)F)CC(c3cc(F)cc(F)c3)=NO2)C1 (mixture of isomers) [II-35] | 100 | – | 90 | 80 | 80 | 90 | 90 | 90 | 90 | 90 | 90 | 80 | 90 |
| CC1(C(=O)NC2C=CC(C(=O)O)C2)CC(c2cc(F)cc(C#N)c2)=NO1 (mixture of isomers) [Example I-075] | – | 90 | 100 | 80 | 80 | 90 | 90 | 90 | 90 | 90 | 90 | 100 | 100 |
| COC(=O)[C@@H]1C=C[C@H](NC(=O)C2(C(F)(F)F)CC(c3cc(F)cc(C#N)c3)=NO2)C1 (single isomer, unassigned) [Example I-097] | 90 | 90 | 100 | 90 | – | 80 | 80 | 80 | 80 | 80 | 80 | 90 | 100 |
| COC(=O)C1C=CC(NC(=O)C2(C)CC(c3cccc(C#N)c3)=NO2)C1 (mixture of isomers) [Example I-080] | 100 | 90 | 90 | 80 | – | 90 | 90 | 90 | 90 | 80 | 90 | 90 | 90 |
| N#Cc1cccc(C2=NOC(C(=O)NC3C=CC(C(=O)OCCCl)C3)(C(F)(F)F)C2)c1 (mixture of isomers) [Example I-088] | 100 | 90 | 100 | 90 | 90 | 90 | 90 | 90 | 90 | 90 | 90 | 90 | – |
| CC1(C(=O)N[C@H]2CC=C(C(=O)OCc3ccccc3)C2)CC(c2cc(F)cc(F)c2)=NO1 (stereo partly shown) [III-12] | 100 | – | 100 | 80 | 90 | 90 | 90 | 90 | 80 | 90 | 90 | 100 | 100 |
